# Data as given in patent US7157494B2, “Dimeric compounds and their use as anti-viral agents” (priority 2001, dated 2007).
# Values joined by “and” are separate entries in the source; they are usually repeats but may differ in a detail not shown here. Identical values can stand only once. Like-named read-outs stand apart in the source and are kept apart here.
# Assays:
# [1] = system: Influenza B/Harbin/7/95; type: cell-based; settings: concentration that inhibited CPE by 50%; MDCK cells, up to 72 hours, MTT
# [2] = system: B/Hong Kong/5/72 BVLV012; assay: Plaque reduction assay (PRA) in MDCK cells; type: cell-based, influenza B; settings: for EC50: Influenza B virus, MDCK, read-out: EC50 PRA B/HongK
# Experimental: (§1) Madin Darby Canine Kidney (MDCK) cells are seeded into six well tissue culture plates and grown to confluency via standard methods. Influenza viruses are diluted in a minimal volume of phosphate buffered saline supplemented with 0.2% bovine serum albumin to yield an estimated titre of 50–100 plaque forming units (pfu) per well. After adsorption to the MDCK cells for one hour at 37° C. in a 5% CO2 atmosphere the viral inocula is aspirated and replaced with viral growth media (minimal Eagle's media supplemented with BSA, trypsin and insulin/transferrin/selenium at optimal concentrations) containing sufficient agar or agarose (generally 1–2%) to cause the media to gel at room temperature and at 37° C. in a 5% CO2 atmosphere until plaques develop (generally 2–4 days). Plaques can be visualised with a suitable stain (e.g. 0.4% crystal violet in formal saline) before counting.
# [3] = system: recent clinical isolates; settings: in vitro assays involving recent clinical isolates, Woods et al 1993; cited from earlier work
# [4] = system: Influenza A/Sydney/5/97; type: cell-based; settings: concentration that inhibited CPE by 50%; MDCK cells, up to 72 hours, MTT
# [5] = Rat lung retention assay (intra-tracheal dosing, compound level in lung tissue); type: in vivo; settings: for [cmpd] / Mean [cmpd]: rat lung tissue; for [cmpd]: individual animal
# Experimental: Rodents are anaesthetised and dosed with compound of interest by the intra-tracheal route at a dose volume of 0.8 ml/kg. The rodent is then held in the vertical position until full recovery is achieved. […] Any analytical method suitable for detection of this type of compound may be used. The time at which levels of compound fall below the sensitivity of the analytical techniques identified will determine the residency time of the compound in lung tissue.
# Please note that all experiments included a co-dosed internal standard, namely compound 3 of International Patent Publication No. WO 02/20514, to permit comparison. The data are expressed as a ratio with respect to this compound, the structure of which is shown below.
# [6] = system: A/WSN/33 BVLV09 (H1N1); assay: Plaque reduction assay (PRA) in MDCK cells; type: cell-based, influenza A H1N1
# Experimental: as §1
# [7] = system: A/New Caledonia/20/99 BVLV008 (H1N1); assay: Plaque reduction assay (PRA) in MDCK cells; type: cell-based, influenza A H1N1; settings: for EC50: Influenza A virus, H1N1, MDCK
# Experimental: as §1
# [8] = system: A/Bayern/7/95 BVL006 (H1N1); assay: Plaque reduction assay (PRA) in MDCK cells; type: cell-based, influenza A H1N1
# Experimental: as §1
# [9] = system: A/Panama/2007/99 BVLV008 (H3N2); assay: Plaque reduction assay (PRA) in MDCK cells; type: cell-based, influenza A H3N2; settings: for EC50: Influenza A virus, H3N2, MDCK, read-out: EC50 PRA A/Pan
# Experimental: as §1
# [10] = system: A/Sydney/5/97 BVLV015 (H3N2); assay: Plaque reduction assay (PRA) in MDCK cells; type: cell-based, influenza A H3N2
# Experimental: as §1
# [11] = system: A/Victoria/3/75 BVLV017 (H3N2); assay: Plaque reduction assay (PRA) in MDCK cells; type: cell-based, influenza A H3N2; settings: for EC50: Influenza A virus, MDCK, reduces plaque numbers by 50%, A/Victoria/3/75 (H3N2), read-out: EC50 PRA A/Vic
# Experimental: as §1
# [12] = system: B/Yamanashi/166/98 BVLV007; assay: Plaque reduction assay (PRA) in MDCK cells; type: cell-based, influenza B; settings: for EC50: Influenza B virus, MDCK, B/Yamanashi/166/98
# Experimental: as §1
# [13] = reduces plaque numbers by 50%, B/Hong Kong/5/72
# [14] = rat, in vivo, 0.1 mg/kg, Mean [cmpd] ng/g
# [15] = reduces plaque numbers by 50%, A/New Caledonia/20/99 (H1N1)
# [16] = reduces plaque numbers by 50%, A/Panama/2007/99 (H3N2)
structure (smiles),measurement,setting,value
"CC(=O)N[C@@H]1C(N=C(N)N)C=C(C(=O)O)O[C@H]1[C@H](O)[C@H](O)CO (single isomer, unassigned) [Compound A, 4-guanidino-2-deoxy-2,3-dehydro-N-acetylneuraminic acid, reference compound]",ID50 B/Harbin/7/95,[1],13 ± 11 ng/mL
same,EC50,[2]; [13],21 ng/mL
same,EC50,[3],20 to 160 nM
same,ID50 A/Sydney/5/97,[4],23 ± 24 ng/mL
same,Ratio Mean [lung] [cmpd]/PCT AU01/01128 compound 3,"[5]; rat, in vivo, 0.1 mg/kg, 48 h",0.26
same,Ratio Mean [lung] [cmpd]/PCT AU01/01128 compound 3,"[5]; rat, in vivo, 0.1 mg/kg, 168 h",0.08
same,concentration at 48 h,[5]; [14],352 ng/g
same,concentration at 168 h,[5]; [14],61 ng/g
same,concentration at 48 h,"[5]; rat, in vivo, 0.1 mg/kg, [cmpd] ng/g",421 ng/g
same,EC50,"[6]; Influenza A virus, MDCK, reduces plaque numbers by 50%, A/WSN/33 (H1N1)",56 ng/mL
same,EC50 PRA A/WSN,"[6]; reduces plaque numbers by 50%, A/WSN/33 (H1N1)",> 100 ng/mL
same,EC50,[7]; [15],0.27 ng/mL
same,EC50 PRA A/New,[7]; [15],0.23 ng/mL
same,EC50,"[8]; Influenza A virus, MDCK, reduces plaque numbers by 50%, A/Bayern/7/95 (H1N1), read-out: EC50 PRA A/Bay",35 ng/mL
same,EC50,[9]; [16],2.7 ng/mL
same,EC50 PRA A/Pan,[9]; [16],3 ng/mL
same,EC50,"[10]; Influenza A virus, MDCK, reduces plaque numbers by 50%, A/Sydney/5/97 (H3N2), read-out: EC50 PRA A/Syd",2.4 ng/mL
same,EC50,[11],5.5 ng/mL
NC12CC3CC(CC(C3)C1)C2 [Amantadine],EC50,[2]; [13],> 10000 ng/mL
same,EC50,"[12]; reduces plaque numbers by 50%, read-out: EC50 PRA B/Yam",2060 ng/mL
same,EC50,[7]; [15],11 ng/mL
same,EC50,[9]; [16],157 ng/mL
same,EC50,[11],220 ng/mL
CC(=O)N[C@H]1[C@H]([C@H](OC(=O)NCCCCNC(=O)c2cccc(C(=O)NCCCCNC(=O)O[C@@H]([C@@H]3OC(C(=O)O)=C[C@H](NC(=N)N)[C@H]3NC(C)=O)[C@H](O)CO)c2)[C@H](O)CO)OC(C(=O)O)=C[C@@H]1NC(=N)N [Compound 1],Ratio Mean [lung] [cmpd]/PCT AU01/01128 compound 3,"[5]; rat, in vivo, 0.1 mg/kg, 48 h",0.44
same,Ratio Mean [lung] [cmpd]/PCT AU01/01128 compound 3,"[5]; rat, in vivo, 0.1 mg/kg, 168 h",0.41
same,concentration at 48 h,[5]; [14],1280 ng/g
same,concentration at 168 h,[5]; [14],372 ng/g
CC(=O)N[C@H]1[C@H]([C@H](OC(=O)NCCCCNS(=O)(=O)c2cccc(S(=O)(=O)NCCCCNC(=O)O[C@@H]([C@@H]3OC(C(=O)O)=C[C@H](NC(=N)N)[C@H]3NC(C)=O)[C@H](O)CO)c2)[C@H](O)CO)OC(C(=O)O)=C[C@@H]1NC(=N)N [Compound 3],ID50 B/Harbin/7/95,[1],0.07 ng/mL
same,ID50 A/Sydney/5/97,[4],0.1 ng/mL
same,Ratio Mean [lung] [cmpd]/PCT AU01/01128 compound 3,"[5]; rat, in vivo, 0.1 mg/kg, 48 h",0.49
same,Ratio Mean [lung] [cmpd]/PCT AU01/01128 compound 3,"[5]; rat, in vivo, 0.1 mg/kg, 168 h",0.36
same,concentration at 48 h,[5]; [14],1410 ng/g
same,concentration at 168 h,[5]; [14],329 ng/g
CC(=O)N[C@@H]1[C@@H](NC(=N)N)C=C(C(=O)O)O[C@H]1C(OC(=O)NCCC(=O)NCc1ccc(CNC(=O)CCNC(=O)O[C@@H]([C@@H]2OC(C(=O)O)=C[C@H](NC(=N)N)[C@H]2NC(C)=O)[C@H](O)CO)cc1)[C@H](O)CO (stereo partly shown) [Compound 4],ID50 B/Harbin/7/95,[1],0.4 ng/mL
same,ID50 A/Sydney/5/97,[4],0.3 ng/mL
CC(=O)N[C@H]1[C@H]([C@H](OC(=O)NCCCNC(=O)c2ccc(C(=O)NCCCNC(=O)O[C@@H]([C@@H]3OC(C(=O)O)=C[C@H](NC(=N)N)[C@H]3NC(C)=O)[C@H](O)CO)cc2)[C@H](O)CO)OC(C(=O)O)=C[C@@H]1NC(=N)N [Compound 5],EC50 PRA B/HongK,[2],0.316 ng/mL
same,EC50 PRA B/Yam,[12],0.022 ng/mL
same,[cmpd],"[5]; 48 hrs, 0.1 mg/kg intra-tracheal, 0.1 mg/kg",1325 ng/g and 750 ng/g and 778 ng/g
same,Mean [cmpd],"[5]; 48 hrs, 0.1 mg/kg intra-tracheal",951 ng/g
same,[cmpd],"[5]; 168 hrs, 0.1 mg/kg intra-tracheal, 0.1 mg/kg",272 ng/g and 636 ng/g and 300 ng/g
same,Mean [cmpd],"[5]; 168 hrs, 0.1 mg/kg intra-tracheal",403 ng/g
same,Ratio Mean [lung] [cmpd]/PCT AU01/01128 compound 3,"[5]; rat lung, 48 hrs, 0.1 mg/kg intra-tracheal",0.68
same,Ratio Mean [lung] [cmpd]/PCT AU01/01128 compound 3,"[5]; rat lung, 168 hrs, 0.1 mg/kg intra-tracheal",0.41
same,EC50 PRA A/WSN,[6],0.02 ng/mL
same,EC50 PRA A/New,[7],0.06 ng/mL
same,EC50 PRA A/Bay,[8],0.009 ng/mL
same,EC50 PRA A/Pan,[9],0.03 ng/mL
same,EC50 PRA A/Syd,[10],0.05 ng/mL
same,EC50 PRA A/Vic,[11],0.003 ng/mL
CC(=O)N[C@H]1[C@H]([C@H](OC(=O)NCCCCCCNC(=O)c2ccc(C(=O)NCCCCCCNC(=O)O[C@@H]([C@@H]3OC(C(=O)O)=C[C@H](NC(=N)N)[C@H]3NC(C)=O)[C@H](O)CO)cc2)[C@H](O)CO)OC(C(=O)O)=C[C@@H]1NC(=N)N [Compound 6],ID50 B/Harbin/7/95,[1],0.9 ng/mL
same,ID50 A/Sydney/5/97,[4],0.2 ng/mL
CC(=O)N[C@H]1[C@H]([C@H](OC(=O)NCCCCCCNC(=O)c2ccccc2C(=O)NCCCCCCNC(=O)O[C@@H]([C@@H]2OC(C(=O)O)=C[C@H](NC(=N)N)[C@H]2NC(C)=O)[C@H](O)CO)[C@H](O)CO)OC(C(=O)O)=C[C@@H]1NC(=N)N [Compound 7],ID50 B/Harbin/7/95,[1],0.8 ng/mL
same,ID50 A/Sydney/5/97,[4],0.7 ng/mL
CC(=O)N[C@H]1[C@H]([C@H](OC(=O)NCCCCCCNC(=O)c2cccc(C(=O)NCCCCCCNC(=O)O[C@@H]([C@@H]3OC(C(=O)O)=C[C@H](NC(=N)N)[C@H]3NC(C)=O)[C@H](O)CO)c2)[C@H](O)CO)OC(C(=O)O)=C[C@@H]1NC(=N)N [Compound 8],ID50 B/Harbin/7/95,[1],0.9 ng/mL
same,ID50 A/Sydney/5/97,[4],0.4 ng/mL
CC(=O)N[C@H]1[C@H]([C@H](OC(=O)NCCCNC(=O)c2cc(C(=O)O)cc(C(=O)NCCCNC(=O)O[C@@H]([C@@H]3OC(C(=O)O)=C[C@H](NC(=N)N)[C@H]3NC(C)=O)[C@H](O)CO)c2)[C@H](O)CO)OC(C(=O)O)=C[C@@H]1NC(=N)N [Compound 9],ID50 B/Harbin/7/95,[1],0.3 ng/mL
same,ID50 A/Sydney/5/97,[4],0.1 ng/mL
CC(=O)N[C@H]1[C@H]([C@H](OC(=O)NCCCNC(=O)c2cccc(C(=O)NCCCNC(=O)O[C@@H]([C@@H]3OC(C(=O)O)=C[C@H](NC(=N)N)[C@H]3NC(C)=O)[C@H](O)CO)c2)[C@H](O)CO)OC(C(=O)O)=C[C@@H]1NC(=N)N [Compound 11],ID50 B/Harbin/7/95,[1],0.1 ng/mL
same,ID50 A/Sydney/5/97,[4],0.1 ng/mL
CC(=O)N[C@H]1[C@H]([C@H](OC(=O)NCCCNC(=O)c2ccccc2C(=O)NCCCNC(=O)O[C@@H]([C@@H]2OC(C(=O)O)=C[C@H](NC(=N)N)[C@H]2NC(C)=O)[C@H](O)CO)[C@H](O)CO)OC(C(=O)O)=C[C@@H]1NC(=N)N [Compound 12],ID50 B/Harbin/7/95,[1],0.1 ng/mL
same,ID50 A/Sydney/5/97,[4],>100 ng/mL
CC(=O)N[C@H]1[C@H]([C@H](OC(=O)NCCCNC(=O)Cc2ccc(CC(=O)NCCCNC(=O)O[C@@H]([C@@H]3OC(C(=O)O)=C[C@H](NC(=N)N)[C@H]3NC(C)=O)[C@H](O)CO)cc2)[C@H](O)CO)OC(C(=O)O)=C[C@@H]1NC(=N)N [Compound 13],ID50 B/Harbin/7/95,[1],0.3 ng/mL
same,ID50 A/Sydney/5/97,[4],0.1 ng/mL
CC(=O)N[C@H]1[C@H]([C@H](OC(=O)NCCCNC(=O)Cc2ccccc2CC(=O)NCCCNC(=O)O[C@@H]([C@@H]2OC(C(=O)O)=C[C@H](NC(=N)N)[C@H]2NC(C)=O)[C@H](O)CO)[C@H](O)CO)OC(C(=O)O)=C[C@@H]1NC(=N)N [Compound 14],ID50 B/Harbin/7/95,[1],0.3 ng/mL
same,ID50 A/Sydney/5/97,[4],0.2 ng/mL
CCOC(=O)C1=C[C@@H](OC(CC)CC)[C@H](NC(C)=O)[C@@H](N)C1 [Oseltamivir],EC50,[2],32 ng/mL
same,EC50,"[12]; read-out: EC50 PRA B/Yam, reduces plaque numbers by 50%",0.7 ng/mL
same,EC50,[7]; [15],0.23 ng/mL
same,EC50,[9]; [16],0.3 ng/mL
same,EC50,[11],0.11 ng/mL
